According to the NIST ThermoML archive (doi:10.1016/j.jct.2005.04.018):
± gives the expanded uncertainty stated by the source.

Conditions: Liquid; for speed of sound: Linear variable-path acoustic interferometer; for mass density: Vibrating tube method

CCCC[n+]1ccn(C)c1.O=S(=O)([N-]S(=O)(=O)C(F)(F)F)C(F)(F)F
Conditions | mass density [kg/m3] | speed of sound [m/s]
313.15 K, 10010 kPa | – | 1228.7 ± 5.2
313.15 K, 12380 kPa | 1431.97 ± 1 | –
313.15 K, 14840 kPa | 1433.7 ± 1 | –
313.15 K, 17300 kPa | 1435.41 ± 1 | –
313.15 K, 19760 kPa | 1437.1 ± 1.1 | –
313.15 K, 19960 kPa | – | 1261.1 ± 5.3
313.15 K, 22210 kPa | 1438.8 ± 1.1 | –
313.15 K, 24670 kPa | 1440.5 ± 1.1 | –
313.15 K, 27130 kPa | 1442.16 ± 1.1 | –
313.15 K, 29590 kPa | 1443.8 ± 1.1 | –
313.15 K, 32050 kPa | 1445.44 ± 1.2 | –
313.15 K, 34510 kPa | 1447.05 ± 1.2 | –
313.15 K, 36970 kPa | 1448.67 ± 1.2 | –
313.15 K, 39430 kPa | 1450.26 ± 1.2 | –
313.15 K, 41880 kPa | 1451.88 ± 1.3 | –
313.15 K, 44340 kPa | 1453.41 ± 1.3 | –
313.15 K, 46800 kPa | 1455.01 ± 1.3 | –
313.15 K, 49260 kPa | 1456.51 ± 1.4 | –
313.15 K, 51720 kPa | 1458.07 ± 1.4 | –
313.15 K, 54180 kPa | 1459.64 ± 1.4 | –
313.15 K, 56640 kPa | 1461.15 ± 1.5 | –
313.15 K, 59100 kPa | 1462.71 ± 1.5 | –
313.15 K, 59730 kPa | – | 1373.5 ± 5.7
313.15 K, 98970 kPa | – | 1466.4 ± 6.1
313.15 K, 150890 kPa | – | 1573.2 ± 6.5
318.14 K, 100 kPa | 1418.06 ± 0.93 | –
318.14 K, 5000 kPa | 1421.63 ± 0.95 | –
318.14 K, 7460 kPa | 1423.41 ± 0.96 | –
318.14 K, 9920 kPa | 1425.23 ± 0.98 | –
318.14 K, 12380 kPa | 1427 ± 0.99 | –
318.14 K, 14840 kPa | 1428.76 ± 1 | –
318.14 K, 17300 kPa | 1430.5 ± 1 | –
318.14 K, 19760 kPa | 1432.21 ± 1 | –
318.14 K, 22210 kPa | 1433.93 ± 1.1 | –
318.14 K, 24670 kPa | 1435.62 ± 1.1 | –
318.14 K, 27130 kPa | 1437.31 ± 1.1 | –
318.14 K, 29590 kPa | 1439.01 ± 1.1 | –
318.14 K, 32050 kPa | 1440.66 ± 1.1 | –
318.14 K, 34510 kPa | 1442.31 ± 1.2 | –
318.14 K, 36970 kPa | 1443.93 ± 1.2 | –
318.14 K, 39430 kPa | 1445.59 ± 1.2 | –
318.14 K, 41880 kPa | 1447.2 ± 1.3 | –
318.14 K, 44340 kPa | 1448.84 ± 1.3 | –
318.14 K, 46800 kPa | 1450.43 ± 1.3 | –
318.14 K, 49260 kPa | 1452.03 ± 1.4 | –
318.14 K, 51720 kPa | 1453.64 ± 1.4 | –
318.14 K, 54180 kPa | 1455.23 ± 1.4 | –
318.14 K, 56640 kPa | 1456.83 ± 1.5 | –
318.14 K, 59100 kPa | 1458.39 ± 1.5 | –
323.14 K, 100 kPa | 1413.69 ± 0.93 | –
323.14 K, 5000 kPa | 1417.31 ± 0.95 | –
323.14 K, 7460 kPa | 1419.14 ± 0.96 | –
323.14 K, 9920 kPa | 1420.97 ± 0.97 | –
323.14 K, 12380 kPa | 1422.8 ± 0.99 | –
323.14 K, 14840 kPa | 1424.57 ± 1 | –
323.14 K, 17300 kPa | 1426.35 ± 1 | –
323.14 K, 19760 kPa | 1428.11 ± 1 | –
323.14 K, 22210 kPa | 1429.82 ± 1.1 | –
323.14 K, 24670 kPa | 1431.56 ± 1.1 | –
323.14 K, 27130 kPa | 1433.26 ± 1.1 | –
323.14 K, 29590 kPa | 1434.96 ± 1.1 | –
323.14 K, 32050 kPa | 1436.63 ± 1.1 | –
323.14 K, 34510 kPa | 1438.32 ± 1.2 | –
323.14 K, 36970 kPa | 1439.98 ± 1.2 | –
323.14 K, 39430 kPa | 1441.63 ± 1.2 | –
323.14 K, 41880 kPa | 1443.28 ± 1.3 | –
323.14 K, 44340 kPa | 1444.91 ± 1.3 | –
323.14 K, 46800 kPa | 1446.54 ± 1.3 | –
323.14 K, 49260 kPa | 1448.18 ± 1.4 | –
323.14 K, 51720 kPa | 1449.79 ± 1.4 | –
323.14 K, 54180 kPa | 1451.4 ± 1.4 | –
323.14 K, 56640 kPa | 1453.01 ± 1.4 | –
323.14 K, 59100 kPa | 1454.62 ± 1.5 | –
323.15 K, 100 kPa | – | 1172.6 ± 4.9
323.15 K, 5050 kPa | – | 1190.2 ± 5
323.15 K, 10030 kPa | – | 1207.8 ± 5.1
323.15 K, 19940 kPa | – | 1241 ± 5.2
323.15 K, 59810 kPa | – | 1355.9 ± 5.7
323.15 K, 99220 kPa | – | 1450.8 ± 6.1
323.15 K, 150840 kPa | – | 1557.4 ± 6.5
328.2 K, 100 kPa | 1408.32 ± 0.93 | –
328.2 K, 5000 kPa | 1412.04 ± 0.94 | –
328.2 K, 7460 kPa | 1413.97 ± 0.96 | –
328.2 K, 9920 kPa | 1415.75 ± 0.97 | –
328.2 K, 12380 kPa | 1417.61 ± 0.98 | –
328.2 K, 14840 kPa | 1419.44 ± 1 | –
328.2 K, 17300 kPa | 1421.25 ± 1 | –
328.2 K, 19760 kPa | 1423.05 ± 1 | –
328.2 K, 22210 kPa | 1424.84 ± 1.1 | –
328.2 K, 24670 kPa | 1426.58 ± 1.1 | –
328.2 K, 27130 kPa | 1428.34 ± 1.1 | –
328.2 K, 29590 kPa | 1430.04 ± 1.1 | –
328.2 K, 32050 kPa | 1431.76 ± 1.1 | –
328.2 K, 34510 kPa | 1433.46 ± 1.2 | –
328.2 K, 36970 kPa | 1435.15 ± 1.2 | –
328.2 K, 39430 kPa | 1436.83 ± 1.2 | –
328.2 K, 41880 kPa | 1438.52 ± 1.2 | –
328.2 K, 44340 kPa | 1440.15 ± 1.3 | –
328.2 K, 46800 kPa | 1441.79 ± 1.3 | –
328.2 K, 49260 kPa | 1443.46 ± 1.3 | –
328.2 K, 51720 kPa | 1445.11 ± 1.4 | –
328.2 K, 54180 kPa | 1446.72 ± 1.4 | –
328.2 K, 56640 kPa | 1448.35 ± 1.4 | –
328.2 K, 59100 kPa | 1449.96 ± 1.5 | –
